Source: patent US20150150892A1, “METHODS AND PRODUCTS RELATED TO LUNG CANCER” (Massachusetts Institute of Technology, priority 2012, published 2015)

Key:
KP and KP^M cells = assay: Cleaved caspase 3 (CC3) immunoblot in lung adenocarcinoma cells; type: cell-based, mouse; settings: KP cell lines, 10IJM Bay-117082, 48 hours
Method: (§1) FIG. 1. Bortezomib inhibits NF-κB signaling and induces apoptosis in murine lung adenocarcinoma cell lines. (1A) reduction of nuclear p65 level by bortezomib. Two KP (KrasLSL-G12D/wt;p53flox/flox) cell lines (KP1 and KP2) were treated with 5 nM bortezomib (BZ) or vehicle control (ctrl) for 24 hours. Nuclear (N) and cytoplasmic (C) fractions of protein lysates were immunoblotted with the indicated antibodies. NEMO and Parp serve as cytoplasmic and nuclear loading controls, respectively. (1B) quantitative PCR analysis of a subset of NF-κB target genes in 5 nM bortezomib (BZ)-treated KP cells at the indicated time points. Vehicle control is set to 1. (1C) apoptosis in KP and KP^M (KrasLSL-G12D/wt;p53R127H/−) cells induced by bortezomib. Cells were pre-treated with 5 nM bortezomib for 24 hours, and protein lysates were immunoblotted with CC3 and tubulin antibodies. (1D) quantification of cell death in bortezomib-treated cells. Cells were treated with the indicated concentrations of bortezomib for 24 hours, and dead cells were quantified by Trypan blue staining. Error bars are SD (n=3).
FIG. 17: Bay-117082 induces cell death In KP cells. […] (17B) Bay-117082 induces apoptosis in KP cells. Cells were treated with 10IJM Bay-117082 for 48 hours. Protein lysates were immunoblotted with cleaved caspase 3 (CC3) and Tubulin antibodies.
Cell pellets were lysed in Laemmli buffer. […]

NF-κB target genes = assay: Quantitative PCR of NF-κB target genes in KP cells; type: cell-based, mouse
Method: as §1
(§2) FIG. 7: The NF-κB inhibitor Bay-117082 leads to lung tumor regression in vivo. (7A) quantitative PCR analysis of NF-κB target gene expression in KP cells treated with 10 μM Bay-117082 for indicated hours. Error bars are SD (n=3). (7B) Bay-117082 treatment leads to lung tumor regression and delays tumor progression in the orthotopic lung tumor model. A total of 50,000 luciferase-tagged KP cells were transplanted into recipient mice (n=6), and treatment was started at 19 days after transplantation (set at D0). Mice were treated with vehicle control or 10 mg/kg Bay-117082 by i.p. injection, and imaged at the indicated time points. Arrows indicate Bay-117082 injections. (7C) Bay-117082 prolongs survival in the KP model (n=6; P=0.008). “i.p. dosing” indicates treatment with 3 doses per week.
RNA was purified using TRIzol (Invitrogen), according to the manufacturer's instructions. One microgram of RNA was reverse transcribed using the High-Capacity cDNA Reverse Transcription Kit (Applied Biosystems). Real-time PCR (quantitative PCR) amplification was performed using Taqman probes (Applied Biosystems). Data were normalized to the Gapdh (mouse) or GAPDH (human) levels.

[1] = test system: stress-activated protein kinases, p38 and JNK-1; settings: cited from earlier work
KP mice = assay: Kaplan-Meier survival of KP mice; type: in vivo, mouse; settings: KP mice 8 weeks post Adeno-Cre, Bay-117082 10 mg/kg i.p. 3 times per week for 4 weeks; control 79.0±13.2 days; P=0.008
Method: (5A and 5B) Kaplan-Meier survival curve of vehicle control and bortezomib-treated KP (5A) and K (5B) mice. Arrows indicate weekly 1 mg/kg bortezomib regimen. […] Arrows indicate bortezomib injection.
To initiate lung tumors, cohorts of K or KP mice of 129svJae background were infected with 2.5×10^7 plaque-forming units of Adeno-Cre (University of Iowa) by intranasal inhalation, as described previously (2, 28). Mice were given bortezomib (LC Labs) in PBS [0.5% dimethylsulfoxide (DMSO)] at 1 mg/kg body weight i.v., as indicated.
To analyze the long-term effects of bortezomib therapy, we investigated whether a 4-dose regimen of bortezomib (19) could prolong survival of tumor-bearing mice. Using a cohort of KP mice, we treated tumor-bearing animals 8 weeks after Adeno-Cre infection with bortezomib once a week for 4 weeks (FIG. 10A).

IKK kinase activity = settings: cited from earlier work
KP and KP^M cell lines = assay: Cell viability assay (Cell Titer Aqueous Kit); type: cell-based, mouse; settings: KP cell lines, increasing doses of Bay-117082, 48 hours
Method: FIG. 2: Bortezomib sensitivity correlates with basal NF-κB activity in KP lung adenocarcinoma cell lines. […] 3TZ, diamond; LKR13, triangle; KP, solid lines; KPM, dashed lines. Error bars are SD (n=3). (2B) lung cancer cell lines with high basal NF-κB activity were sensitive to bortezomib. NF-κB p65 DNA-binding activity was determined by ELISA from nuclear extracts of KP cell lines and LKR13 cells (set as 1). Relative viability was measured after 5 nM bortezomib treatment, as in 2A. FIG. 17: Bay-117082 induces cell death In KP cells. […] (17B) Bay-117082 induces apoptosis in KP cells. Cells were treated with 10IJM Bay-117082 for 48 hours. […] Cell culture conditions were as described recently (30).

[2] = test system: luciferase-tagged KP cells transplanted into immunocompetent recipient mice; assay: Orthotopic lung tumor model, survival and bioluminescence imaging; type: in vivo, mouse
Source text: FIG. 6: Imaging bortezomib response and resistance in an orthotopic lung tumor model. (6A) experimental design. Lung cancer cells derived from KP tumors were infected with a retrovirus expressing luciferase and transplanted into immunocompetent recipient mice by tail vein injection. (6B) Kaplan-Meier survival curve of control and bortezomib-treated recipient mice (n=6; P=1.4×10−5). A total of 10,000 cells were transplanted, and treatment started after 35 days. (6C) representative bioluminescence imaging of recipient mice (n=6) treated with vehicle control or bortezomib, as in 6B. D0 refers to the first treatment. Arrows indicate weekly bortezomib regimen.
as §2
At indicated time points, mice were scanned for 15 min under isoflurane anesthesia, using a small animal eXplore Locus microCT (GE Healthcare) at 45-μm resolution, 80 kV, with 450-mA current (47). Images were acquired and processed using GE eXplore software. Bioluminescence imaging was performed as previously described (48). Mice were imaged for 60 seconds, and signals in the lung were quantified using Xenogen software.
To facilitate imaging of the bortezomib treatment response, we adapted a transplantation-based orthotopic lung cancer mouse model (37). As outlined in FIG. 6A, we infected KP cell lines with a retrovirus expressing firefly luciferase. The cells were transplanted into immunocompetent recipient mice by i.v. injection, resulting in the development of in situ lung tumors that could be imaged and quantified by bioluminescence imaging.
To determine whether bortezomib therapy was effective in the orthotopic model, we transplanted 10,000 KP cells into host mice and treated the mice 5 weeks later, either with control or with a weekly 4-dose regimen of bortezomib (37).

Hmgsc2 mRNA = Hmgsc2 mRNA in bortezomib resistant cells; type: cell-based; settings: vs control shRNA
Source text: As shown in the data the control levels of Hmgsc2 are quite high in the control and low in the other samples.
The effects of Hmgsc2 expression in bortezomib resistant cells was examined to determine if Hmgsc2 would be a good therapeutic target for the treatment of NF-kB regulated lung cancers. […] As shown in the data the control levels of Hmgsc2 are quite high in the control and low in the other samples.

Cc1ccc(S(=O)(=O)/C=C/C#N)cc1 [Bay-117082]
caspase 3 cleavage (KP and KP^M cells): induced caspase 3 cleavage | Xiap inhibition, Bay-117082 compared with bortezomib (NF-κB target genes; KP cells in vitro, FIG. 1B and FIG. 7A): stronger | expression of prosurvival NF-κB target genes such as Bcl2, Bclx1, Xiap (NF-κB target genes; KP cells, 10 μM Bay-117082, indicated hours): downregulates | effect on stress-activated protein kinases p38 and JNK-1 [1]: stimulate | survival (KP mice): 120.2 ± 27.0 days | IKK kinase activity (IKK kinase activity): inhibits | cell death (relative cell viability) (KP and KP^M cell lines): cell death | lung tumor signal in the initial phase ([2]; 50,000 luciferase-tagged KP cells, 10 mg/kg Bay-117082 i.p., 0-9 days): significantly reduced lung tumor signal | lung tumor progression ([2]; orthotopic model, 10 mg/kg Bay-117082 i.p.): delayed lung tumor progression until 42 days | tumor response under continuous treatment ([2]; orthotopic model, 42-63 days): eventually became refractory to therapy

insulin: positive control; represses Hmgcs2
relative amount of Hmgsc2 mRNA (Hmgsc2 mRNA): low
